In PubChem BioAssay AID248 (DTP/NCI, 2004):
Values joined by “and” are separate entries in the source; they are usually repeats but may differ in a detail not shown here. Equal values may be shown once. Toxic doses and inconclusive results are not listed. Cut-off read from the data, not from the text of the source: active = T/C of 150% or more; inactive = T/C below 125%. Peptide text beside a SMILES is read from it. * marks the point of attachment. Boc = CC(C)(C)OC(=O)*; Bn = c1ccc(C*)cc1

System: L1210 leukemia ip in BDF1 mice, survival T/C
Assay: NCI In Vivo Anticancer Drug Screen. Data for tumor model L1210 Leukemia (intraperitoneal) in B6D2F1 (BDF1) mice
Conditions: endpoint: mean survival time, higher = longer survival
Summary of the method: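 Each compound was tested against a transplantable tumor grown in mice. The endpoint was survival, with treated animals benchmarked against vehicle controls as a simple ratio.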

[1] = dose: 100.0 mg/kg/injection, schedule: Q01DX001 (ip), vehicle: saline with Tween-80
[2] = dose: 200.0 mg/kg/injection, schedule: Q01DX001 (ip), vehicle: saline with Tween-80
[3] = dose: 400.0 mg/kg/injection, schedule: Q01DX001 (ip), vehicle: saline with Tween-80
[4] = dose: 200.0 mg/kg/injection, schedule: Q04DX003 (ip), vehicle: saline
[5] = dose: 400.0 mg/kg/injection, schedule: Q04DX003 (ip), vehicle: saline
[6] = dose: 100.0 mg/kg/injection, schedule: Q04DX003 (ip), vehicle: Klucel (hydroxypropylcellulose) (HPC)
[7] = dose: 200.0 mg/kg/injection, schedule: Q04DX003 (ip), vehicle: Klucel (hydroxypropylcellulose) (HPC)
[8] = dose: 400.0 mg/kg/injection, schedule: Q04DX003 (ip), vehicle: Klucel (hydroxypropylcellulose) (HPC)

Measured: T/C

O=C1N(O)C23CCCC(Br)C2ON=C3C12CCCCC2 (centres undefined)
inactive: [1] 112 % of control | dose: 100.0 mg/kg/injection, schedule: Q04DX003 (ip), vehicle: saline with Tween-80 106 % of control | [2] 112 % of control | dose: 200.0 mg/kg/injection, schedule: Q04DX003 (ip), vehicle: saline with Tween-80 98 % of control | [3] 104 % of control | dose: 400.0 mg/kg/injection, schedule: Q04DX003 (ip), vehicle: saline with Tween-80 95 % of control

CC[N+](C)(CC)CC[N+]1(C)CC2CC=CCC2C1 (centres undefined)
inactive: dose: 222.0 mg/kg/injection, schedule: Q01DX Z (ip), vehicle: saline 94 % of control | dose: 333.0 mg/kg/injection, schedule: Q01DX Z (ip), vehicle: saline 97 % of control | dose: 500.0 mg/kg/injection, schedule: Q01DX Z (ip), vehicle: saline 94 % of control

C[CH2][Sn](/[CH]=C/C=C/OC)([CH2]C)[CH2]C
inactive: dose: 0.19 mg/kg/injection, schedule: Q01DX009 (ip), vehicle: saline 99 % of control | dose: 0.39 mg/kg/injection, schedule: Q01DX009 (ip), vehicle: saline 94 % of control | dose: 0.78 mg/kg/injection, schedule: Q01DX009 (ip), vehicle: saline 99 % of control | dose: 6.25 mg/kg/injection, schedule: Q01DX009 (ip), vehicle: saline 94 % of control | dose: 12.5 mg/kg/injection, schedule: Q01DX009 (ip), vehicle: saline 97 % of control

CC(C)(C)NC(=O)C1CCCC(C(=O)NC(C)(C)C)C1 (centres undefined)
inactive: [4] 88 % of control | [5] 88 % of control

Cc1ccc(/C=C/[N+](=O)[O-])cc1
inactive: dose: 6.25 mg/kg/injection, schedule: Q01DX009 (ip), vehicle: saline sonified 100 % of control | dose: 6.25 mg/kg/injection, schedule: Q04DX003 (ip), vehicle: Klucel (hydroxypropylcellulose) (HPC) 97 % of control | dose: 12.5 mg/kg/injection, schedule: Q01DX009 (ip), vehicle: saline sonified 101 % of control | dose: 12.5 mg/kg/injection, schedule: Q04DX003 (ip), vehicle: Klucel (hydroxypropylcellulose) (HPC) 97 % of control | dose: 25.0 mg/kg/injection, schedule: Q01DX009 (ip), vehicle: saline sonified 101 % of control | dose: 25.0 mg/kg/injection, schedule: Q04DX003 (ip), vehicle: Klucel (hydroxypropylcellulose) (HPC) 93 % of control

CCC(Cl)COP(=O)(OCC(Cl)CC)C(CC)P(=O)(OCC(Cl)CC)OCC(Cl)CC (centres undefined)
inactive: dose: 100.0 mg/kg/injection, schedule: Q04DX003 (ip), vehicle: saline 91 % of control | [4] 95 % of control | [5] 93 % of control

CC(=O)NC1=C(Oc2ccc(C)cc2)C(=O)c2ccccc2C1=O
inactive: dose: 75.0 mg/kg/injection, schedule: Q01DX001 (ip), vehicle: saline 98 % of control | dose: 150.0 mg/kg/injection, schedule: Q01DX001 (ip), vehicle: saline 96 % of control

O=C(O)/C=C\C(=O)Nc1ccc(O)cc1
inactive: [6] 102 % of control | dose: 200.0 mg/kg/injection, schedule: Q01DX Z (ip), vehicle: saline 120 % of control | [7] 110 % of control | [8] 110 % of control | dose: 675.0 mg/kg/injection, schedule: Q01DX Z (ip), vehicle: saline 100 % of control

Nc1ncnc2c1nnn2C1OC(CO)C(O)C1O (centres undefined)
inactive: dose: 42.0 mg/kg/injection, schedule: Q01DX015 (ip), vehicle: saline 104 % of control | dose: 50.0 mg/kg/injection, schedule: Q01DX001 (ip), vehicle: saline 107 % of control | dose: 63.0 mg/kg/injection, schedule: Q01DX015 (ip), vehicle: saline 98 % of control | dose: 72.0 mg/kg/injection, schedule: Q01DX015 (ip), vehicle: saline 117 % of control | dose: 100.0 mg/kg/injection, schedule: Q01DX001 (ip), vehicle: Klucel (hydroxypropylcellulose) (HPC) 97 % of control | dose: 100.0 mg/kg/injection, schedule: Q01DX001 (ip), vehicle: saline 109 % of control and 106 % of control | [6] 95 % of control | dose: 180.0 mg/kg/injection, schedule: Q01DX001 (ip), vehicle: Klucel (hydroxypropylcellulose) (HPC) 120 % of control | dose: 180.0 mg/kg/injection, schedule: Q01DX001 (ip), vehicle: saline 113 % of control | dose: 200.0 mg/kg/injection, schedule: Q01DX001 (ip), vehicle: Klucel (hydroxypropylcellulose) (HPC) 92 % of control | dose: 200.0 mg/kg/injection, schedule: Q01DX001 (ip), vehicle: saline 116 % of control and 109 % of control | [7] 95 % of control | dose: 270.0 mg/kg/injection, schedule: Q01DX001 (ip), vehicle: Klucel (hydroxypropylcellulose) (HPC) 122 % of control | dose: 400.0 mg/kg/injection, schedule: Q01DX001 (ip), vehicle: Klucel (hydroxypropylcellulose) (HPC) 122 % of control and 97 % of control | dose: 400.0 mg/kg/injection, schedule: Q01DX001 (ip), vehicle: saline 106 % of control | [8] 92 % of control

COC(=O)c1ccc(N(C)CC(=O)CNc2nc(N)nc(SCc3ccccc3)c2[N+](=O)[O-])cc1
inactive: [1] 88 % of control | [2] 89 % of control | [3] 88 % of control

O=c1[nH]cc(NCc2ccco2)c(=O)[nH]1
inactive: [6] 101 % of control | [7] 88 % of control | [8] 93 % of control

Nc1ccc2c(c1)/C(=N/O)c1cc(Cl)ccc1-2
inactive: dose: 100.0 mg/kg/injection, schedule: Q01DX001 (ip), vehicle: carboxymethylcellulose (CMC) 109 % of control | dose: 200.0 mg/kg/injection, schedule: Q01DX001 (ip), vehicle: carboxymethylcellulose (CMC) 103 % of control | dose: 400.0 mg/kg/injection, schedule: Q01DX001 (ip), vehicle: carboxymethylcellulose (CMC) 100 % of control

COC(=O)CNC(=O)C(Cc1ccc(OCc2ccccc2)cc1)NC(=O)C(CO)NC(=O)OC(C)(C)C (stereo not drawn) (Boc-Ser-Tyr(Bn)-Gly-OMe; configuration not given here)
inactive: dose: 100.0 mg/kg/injection, schedule: Q01DX009 (ip), vehicle: saline with Tween-80 102 % of control | dose: 200.0 mg/kg/injection, schedule: Q01DX009 (ip), vehicle: saline with Tween-80 98 % of control | dose: 400.0 mg/kg/injection, schedule: Q01DX009 (ip), vehicle: saline with Tween-80 88 % of control

COc1cc(C(=O)O)cc(OC)c1OC
inactive: dose: 100.0 mg/kg/injection, schedule: Q04DX002 (ip), vehicle: other 103 % of control | dose: 200.0 mg/kg/injection, schedule: Q04DX002 (ip), vehicle: other 98 % of control | dose: 400.0 mg/kg/injection, schedule: Q04DX002 (ip), vehicle: other 98 % of control

CN(C)CC(=O)Nc1ccc(NC(=O)c2ccc(C(=O)Nc3ccc(NC(=O)CN(C)C)cc3)cc2)cc1
inactive: dose: 15.0 mg/kg/injection, schedule: Q01DX Z (ip), vehicle: methylcellulose (MC) 104 % of control | dose: 30.0 mg/kg/injection, schedule: Q01DX Z (ip), vehicle: methylcellulose (MC) 106 % of control | dose: 60.0 mg/kg/injection, schedule: Q01DX Z (ip), vehicle: methylcellulose (MC) 93 % of control | dose: 120.0 mg/kg/injection, schedule: Q01DX Z (ip), vehicle: methylcellulose (MC) 95 % of control

Oc1ccc(-c2ccccc2)cc1CNC12CC3CC(CC(C3)C1)C2
inactive: dose: 100.0 mg/kg/injection, schedule: Q01DX009 (ip), vehicle: Klucel (hydroxypropylcellulose) (HPC) 100 % of control | [6] 90 % of control | dose: 200.0 mg/kg/injection, schedule: Q01DX009 (ip), vehicle: Klucel (hydroxypropylcellulose) (HPC) 88 % of control | [7] 100 % of control | dose: 400.0 mg/kg/injection, schedule: Q01DX009 (ip), vehicle: Klucel (hydroxypropylcellulose) (HPC) 93 % of control | [8] 94 % of control

CC(=O)N1CCC(Cc2ccccc2)CC1
inactive: dose: 75.0 mg/kg/injection, schedule: Q01DX009 (ip), vehicle: saline with Tween-80 104 % of control
